Data from PMC9095486, “Reversible RNA phosphorylation stabilizes tRNA for cellular thermotolerance” (Nature, 2022).

Experiments:
TkArkI [1] = molecular target: T1, TkArkI (Thermococcus kodakarensis, UniProt Q5JDQ4); assay: LC-MS of ligands extracted from purified protein; format: binding; details: co-purified from E. coli
T1 construct: gene TK2051; full length, codon-optimised synthetic gene in pE-SUMO-TEV, E. coli; His6-SUMO tag cleaved by Ulp1; residues 1-216 described in structure

TkArkI [2] = molecular target: T1, TkArkI; assay: X-ray crystallography, […] Å; LC-MS of bound ligand; details: co-purified from E. coli; putative ATP-binding pocket

T1 sequence (Q5JDQ4 entry or part of it): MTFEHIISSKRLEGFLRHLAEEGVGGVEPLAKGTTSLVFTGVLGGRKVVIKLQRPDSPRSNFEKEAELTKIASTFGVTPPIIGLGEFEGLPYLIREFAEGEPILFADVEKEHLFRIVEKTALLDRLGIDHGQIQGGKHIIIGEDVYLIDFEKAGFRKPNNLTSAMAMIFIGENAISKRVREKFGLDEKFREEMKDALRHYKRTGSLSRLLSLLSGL

SMILES | LC-MS of ligands extracted from purified protein (TkArkI [1]) | X-ray crystallography, 1.8 Å; LC-MS of bound ligand (TkArkI [2])
Nc1nc2c(ncn2[C@H]2C[C@H](O)[C@@H](CO)O2)c(=O)[nH]1 [deoxyguanosine] | We confirmed guanosine (and deoxyguanosine) as a ligand that tightly binds to TkArkI | –
Nc1nc2c(ncn2[C@@H]2O[C@H](CO)[C@@H](O)[C@H]2O)c(=O)[nH]1 [guanosine] | – | we observed a clear electron density for guanosine in the cleft of the two lobes
